{"source": "patent US20230144459A1", "about": "“SHEDDING BLOCKING AGENTS WITH INCREASED STABILITY” (BIOND BIOLOGICS LTD., priority 2020, published 2023)", "target": "T1, human CD28 (shedding of sCD28 from cells) (Homo sapiens, UniProt P10747)", "T1 construct": "endogenous in cells; host or cells: CD4 T cells and PBMCs from fresh blood of healthy donors", "T1 sequence (P10747 19-220)": "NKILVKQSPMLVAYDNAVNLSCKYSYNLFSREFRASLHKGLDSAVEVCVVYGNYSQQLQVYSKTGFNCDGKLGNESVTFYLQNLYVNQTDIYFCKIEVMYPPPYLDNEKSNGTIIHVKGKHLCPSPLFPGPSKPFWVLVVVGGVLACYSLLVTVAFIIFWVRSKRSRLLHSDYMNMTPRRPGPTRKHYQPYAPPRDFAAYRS", "assay": "Inhibition of CD28 shedding in stimulated lymphocytes (CD4 with PHA and IL-2 or PBMCs with SEB)", "type": "cell-based", "conditions": "percent of soluble CD28 reduction from basal stimulation; constructs and isotype 3 μM, MMPi TMI-1 1 μM", "data": [{"compound": "CC#CCOc1ccc(S(=O)(=O)N2CCSC(C)(C)[C@@H]2C(=O)NO)cc1", "note": "[MMPi, TMI-1, reference compound]", "values": [{"measurement": "Inhibition (%) of CD28 shedding", "value": 60.5, "unit": "%"}]}]}
